# Results from patent US8809536B2, “2,3-dihydrobenzo[1,4] dioxin-2-ylmethyl derivatives as alpha2C antagonists for use in the treatment of peripheric and central nervous system diseases” (Orion Corporation, priority 2007, dated 2014).
# How the values were obtained:
# human alpha2A receptors = target: T1, human alpha2A receptors (Homo sapiens, UniProt P08913); experiment: Determination of alpha2A antagonistic activity in vitro (intracellular calcium, FLIPR Calcium 3 Assay, FLEXstation); type: cell-based; settings: CHO cells stably transfected with human alpha2A receptor and Gα16; stimulated with 100 nM adrenaline or 200 nM noradrenaline
# T1 construct: host or cells: CHO cells, cotransfected with expression vector pCEP-Galpha16
# T1 sequence (P08913 1-465): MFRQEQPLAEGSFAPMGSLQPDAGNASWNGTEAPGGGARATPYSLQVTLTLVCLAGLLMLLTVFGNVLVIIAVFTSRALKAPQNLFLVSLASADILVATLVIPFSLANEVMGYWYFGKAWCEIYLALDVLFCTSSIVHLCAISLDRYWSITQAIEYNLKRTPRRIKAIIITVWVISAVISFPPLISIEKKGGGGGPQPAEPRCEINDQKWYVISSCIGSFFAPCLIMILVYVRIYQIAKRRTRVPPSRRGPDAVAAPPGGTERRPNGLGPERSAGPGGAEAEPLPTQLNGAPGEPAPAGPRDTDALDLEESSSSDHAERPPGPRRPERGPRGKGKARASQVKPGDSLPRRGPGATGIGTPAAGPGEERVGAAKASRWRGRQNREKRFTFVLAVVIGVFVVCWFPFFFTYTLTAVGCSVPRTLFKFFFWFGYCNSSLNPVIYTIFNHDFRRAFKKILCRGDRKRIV
# Protocol: (§1) Chinese hamster ovary (CHO) cells stably transfected with human alpha2A and alpha2C or rodent alpha2D receptors (University of Turku, Finland) were cotransfected with the expression vector pCEP-Gα16 (Molecular Devices, CA, USA) and CHO cells stably transfected with human adrenergic alpha2B receptors and mitochondrially targeted aequorin (Euroscreen, Belgium) were used in this experiment. The cells were maintained at 37° C. in a 5% CO2/95% air atmosphere. The cells were cultured in HAM F-12 medium supplemented with 10% FCS, 25 mM HEPES, 100 IU/ml penicillin, 100 μg/ml streptomycin, 500 μg/ml geneticin and 240 μg/ml hygromycin B. The cells were subcultured twice weekly with 0.25% trypsin and 1 mM EDTA. The subculture ratio was 1:5-1:20. The growth medium was changed every 2 or 3 days. All cell culture reagents were from Gibco. The day before the experiment the cells were plated into black-walled, clear bottom 96-well plates at a density of 30,000-45,000 cells/well.
# (§2) The growth medium was removed and the cells were incubated with the test compounds and the FLIPR Calcium 3 Assay reagent (Molecular Devices, CA, USA) for 1 h at 37° C. in dark. The test compounds (concentrations in cells 100 pM-10 μM) were dissolved in Probenecid-Ringer consisting of 150 mM NaCl, 3 mM KCl, 1.2 mM MgCl2, 1 mM CaCl2, 5 mM glucose, 20 mM HEPES and 2.5 mM probenecid (pH 7.4 adjusted with 1.0 M NaOH). The osmolarity was adjusted to 322 milliosmoles with Osmostat® OM-6020 osmometer (DIC Kyoto Daiichi Kagagu Co. Ltd, Japan). […] All experiments were performed at 37° C. The test compounds dissolved in Probenecid-Ringer were applied by FLEX station at 17 s time point. […] In order to determine antagonism, the cells were stimulated either with 100 nM adrenaline or 200 nM noradrenaline and the test compounds were added to the cells at least 5 min before the experiment. Typically, there were four replicates at each concentration and seven different dose levels. For example, if the number of plates from which results were obtained was three, 84 (4*7*3) wells were thus measured to construct dose-response relationship. The samples were excited at 485 nm and emission was detected at 525 nm with a 515 nm cut-off filter. Reading time was 60 s per well and the photomultiplier sensitivity value was set to 15. The minimum fluorescence value subtracted from the maximum value for each well was used in the calculations. SOFTmax PRO version 3.2 software was used for analyzing the results. Fitting of the antagonist dose-response results was performed with the free Hill equation and the IC50 values were fitted with Michaelis-Menten equation in Sigma Plot 8.0.
# human alpha2C receptors = target: T2, human alpha2C receptors (Homo sapiens, UniProt P18825); experiment: Determination of alpha2C antagonistic activity in vitro (intracellular calcium, FLIPR Calcium 3 Assay, FLEXstation); type: cell-based; settings: CHO cells stably transfected with human alpha2C receptor and Gα16; stimulated with 100 nM adrenaline or 200 nM noradrenaline
# T2 construct: host or cells: CHO cells, cotransfected with expression vector pCEP-Galpha16
# T2 sequence (P18825 1-462): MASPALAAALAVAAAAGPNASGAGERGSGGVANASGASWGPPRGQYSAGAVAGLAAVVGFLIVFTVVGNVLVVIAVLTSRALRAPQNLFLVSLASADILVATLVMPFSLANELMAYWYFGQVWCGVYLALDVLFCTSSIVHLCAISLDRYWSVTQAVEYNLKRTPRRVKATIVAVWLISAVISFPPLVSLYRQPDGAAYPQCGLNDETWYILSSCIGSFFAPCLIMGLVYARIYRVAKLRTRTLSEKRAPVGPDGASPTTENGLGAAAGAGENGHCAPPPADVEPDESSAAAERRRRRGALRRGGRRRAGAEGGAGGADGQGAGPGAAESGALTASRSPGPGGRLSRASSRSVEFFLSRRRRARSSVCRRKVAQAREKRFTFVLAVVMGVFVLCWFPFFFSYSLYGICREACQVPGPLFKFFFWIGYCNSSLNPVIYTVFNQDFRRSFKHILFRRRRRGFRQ
# Protocol: as §1, §2
smiles,measurement,setting,value
"Fc1ccc(C2CCCN(C[C@H]3COc4ccccc4O3)C2)cc1 (stereo in doubt) [Example 18, (R*)-1-[(S)-1-(2,3-Dihydrobenzo[1,4]dioxin-2-yl)methyl]-3-(4-fluorophenyl)piperidine]",IC50,human alpha2A receptors,> 10000 nM
same,IC50,human alpha2C receptors,69.5 nM
"C[C@]1(C(=O)O)CCCN(C[C@H]2COc3ccccc3O2)C1 [Example 86, Lithium (S)-1-[(S)-1-(2,3-dihydrobenzo[1,4]dioxin-2-yl)methyl]-3-methyl-piperidine-3-carboxylate]",IC50,human alpha2A receptors,8420 nM
same,IC50,human alpha2C receptors,10.7 nM
"CC1(COCC(F)(F)F)CCCN(CC2COc3ccccc3O2)C1 (stereo not drawn) [Example 74, 1-(2,3-Dihydrobenzo[1,4]dioxin-2-ylmethyl)-3-methyl-3-(2,2,2-trifluoroethoxymethyl)-piperidine]",IC50,human alpha2A receptors,346 nM
same,IC50,human alpha2C receptors,7.4 nM
"C[C@]1(COCCO)CCCN(C[C@H]2COc3ccccc3O2)C1 [Example 89, 2-{(S)-1-[(S)-1-(2,3-Dihydrobenzo[1,4]dioxin-2-yl)methyl]-3-methylpiperidin-3-ylmethoxy}-ethanol D-tartrate]",IC50,human alpha2A receptors,2140 nM
same,IC50,human alpha2C receptors,0.6 nM
"CCC1(COC)CCCN(CC2COc3ccccc3O2)C1 (stereo not drawn) [Example 63, 1-(2,3-Dihydrobenzo[1,4]dioxin-2-ylmethyl)-3-ethyl-3-methoxymethylpiperidine]",IC50,human alpha2A receptors,2730 nM
same,IC50,human alpha2C receptors,0.8 nM
"C=CCC1(CO)CCCN(CC2COc3ccccc3O2)C1 (stereo not drawn) [Example 71, [3-Allyl-1-(2,3-dihydrobenzo[1,4]dioxin-2-ylmethyl)piperidin-3-yl]methanol]",IC50,human alpha2A receptors,1150 nM
same,IC50,human alpha2C receptors,1.1 nM
"c1ccc(C2CCCN(CC3COc4ccccc4O3)C2)cc1 (stereo not drawn) [Example 2, 1-(2,3-Dihydrobenzo[1,4]dioxin-2-ylmethyl)-3-phenylpiperidine]",IC50,human alpha2A receptors,3780 nM
same,IC50,human alpha2C receptors,11.4 nM
"c1ccc2c(c1)OCC(CN1CCC3CCCCC3C1)O2 (stereo not drawn) [Example 48, 2-(2,3-Dihydrobenzo[1,4]dioxin-2-ylmethyl)decahydroisoquinoline]",IC50,human alpha2A receptors,1470 nM
same,IC50,human alpha2C receptors,7.4 nM
"CC1(COS(C)(=O)=O)CCCN(CC2COc3ccccc3O2)C1 (stereo not drawn) [Example 61, Methanesulfonic acid 1-(2,3-dihydrobenzo[1,4]dioxin-2-ylmethyl)-3-methylpiperidin-3-ylmethyl ester]",IC50,human alpha2A receptors,2870 nM
same,IC50,human alpha2C receptors,2.4 nM
"C[C@]1(COCC(=O)O)CCCN(C[C@H]2COc3ccccc3O2)C1 [Example 96, Sodium {(S)-1-[(S)-1-(2,3-dihydrobenzo[1,4]dioxin-2-yl)methyl]-3-methylpiperidin-3-yl-methoxy}acetate]",IC50,human alpha2A receptors,5440 nM
same,IC50,human alpha2C receptors,4.6 nM
"OCc1cccc(C2CCCN(C[C@H]3COc4ccccc4O3)C2)c1 (stereo in doubt) [Example 29, (3-{(R*)-1-[(S)-1-(2,3-Dihydrobenzo[1,4]dioxin-2-yl)methyl]piperidin-3-yl}phenyl)methanol]",IC50,human alpha2A receptors,4360 nM
same,IC50,human alpha2C receptors,5.4 nM
"Oc1ccccc1C1CCCN(CC2COc3ccccc3O2)C1 (stereo not drawn) [Example 12, 2-[1-(2,3-Dihydrobenzo[1,4]dioxin-2-ylmethyl)piperidin-3-yl]phenol]",IC50,human alpha2A receptors,374 nM
same,IC50,human alpha2C receptors,19.6 nM
"C=CCOCC1(C)CCCN(CC2COc3ccccc3O2)C1 (stereo not drawn) [Example 69, 3-Allyloxymethyl-1-(2,3-dihydrobenzo[1,4]dioxin-2-ylmethyl)-3-methyl-piperidine]",IC50,human alpha2A receptors,1290 nM
same,IC50,human alpha2C receptors,1.7 nM
"COC(C)(C)C1(C)CCCN(CC2COc3ccccc3O2)C1 (stereo not drawn) [Example 58, 1-(2,3-Dihydrobenzo[1,4]dioxin-2-ylmethyl)-3-(1-methoxy-1-methylethyl)-3-methylpiperidine]",IC50,human alpha2A receptors,776 nM
same,IC50,human alpha2C receptors,9.5 nM
"C=CCC1(COC)CCCN(CC2COc3ccccc3O2)C1 (stereo not drawn) [Example 72, 3-Allyl-1-(2,3-dihydrobenzo[1,4]dioxin-2-ylmethyl)-3-methoxymethylpiperidine]",IC50,human alpha2A receptors,635 nM
same,IC50,human alpha2C receptors,0.9 nM
